Laboratory results as given in ChEMBL document CHEMBL1201862, “PubChem BioAssay data set” (2004).
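Protocol summary: plate cells (96-well), add compound at 5 concentrations, incubate 48 h, interpolate endpoints linearly. GI50: concentration for 50% inhibition of growth.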 Active and inactive are the calls of the source. Rule as the data show it: active = GI50 up to about 1.1 µM and inactive = higher.

Legend:
Test in all cases: NCI tumour cell line growth inhibition, 48 h
786-0 = test system: 786-0
A498 = test system: A498
A549 = test system: A549
ACHN = test system: ACHN
BT-549 = test system: BT-549
CAKI-1 = test system: CAKI-1
CCRF-CEM = test system: CCRF-CEM
COLO 205 = test system: COLO 205
DU-145 = test system: DU-145
EKVX = test system: EKVX
HCT-116 = test system: HCT-116
HCT-15 = test system: HCT-15
HOP-62 = test system: HOP-62
HOP-92 = test system: HOP-92
HT-29 = test system: HT-29
Hs-578T = test system: Hs-578T
IGROV-1 = test system: IGROV-1
K562 = test system: K562
KM12 = test system: KM12
LOX IMVI = test system: LOX IMVI
M14 = test system: M14
MDA-MB-231 = test system: MDA-MB-231
MDA-MB-435 = test system: MDA-MB-435
MDA-N = test system: MDA-N
MOLT-4 = test system: MOLT-4
Malme-3M = test system: Malme-3M
NCI-H226 = test system: NCI-H226
NCI-H23 = test system: NCI-H23
NCI-H522 = test system: NCI-H522
NCI/ADR-RES = test system: NCI/ADR-RES
OVCAR-3 = test system: OVCAR-3
OVCAR-4 = test system: OVCAR-4
OVCAR-5 = test system: OVCAR-5
OVCAR-8 = test system: OVCAR-8
PC-3 = test system: PC-3
RPMI-8226 = test system: RPMI-8226
RXF 393 = test system: RXF 393
SF-268 = test system: SF-268
SF-295 = test system: SF-295
SK-MEL-28 = test system: SK-MEL-28
SK-MEL-2 = test system: SK-MEL-2
SK-MEL-5 = test system: SK-MEL-5
SK-OV-3 = test system: SK-OV-3
SN12C = test system: SN12C
SNB-19 = test system: SNB-19
SNB-75 = test system: SNB-75
SR = test system: SR
SW-620 = test system: SW-620
T47D = test system: T47D
TK-10 = test system: TK-10
U-251 = test system: U-251
UACC-257 = test system: UACC-257
UACC-62 = test system: UACC-62
UO-31 = test system: UO-31
NCI-H460 = test system: NCI-H460
MCF7 = test system: MCF7

With CCOC(=O)C(C)c1nc2c(Cl)c3ncccc3cc2[nH]c1=O (stereo not drawn) the GI50 (786-0) was > 100 µM (inactive), the GI50 (A498) was > 100 µM (inactive) and the GI50 (A549) was 53.2 µM (inactive). For the same compound, the GI50 (ACHN) was 22.6 µM (inactive), the GI50 (BT-549) was 57 µM (inactive) and the GI50 (CAKI-1) was 69.5 µM (inactive). For the same compound, the GI50 (CCRF-CEM) was 28.2 µM (inactive), the GI50 (COLO 205) was > 100 µM (inactive) and the GI50 (DU-145) was > 100 µM (inactive). The GI50 (EKVX) was 31 µM (inactive), the GI50 (HCT-116) was 76.9 µM (inactive) and the GI50 (HCT-15) was 57.3 µM. For the same compound, the GI50 (HOP-62) was 34.1 µM (inactive), the GI50 (HOP-92) was 29.8 µM (inactive) and the GI50 (HT-29) was 30.7 µM (inactive). The GI50 (Hs-578T) was 23.2 µM (inactive), the GI50 (IGROV-1) was 62.2 µM (inactive) and the GI50 (K562) was 34 µM (inactive). For the same compound, the GI50 (KM12) was 43.8 µM (inactive), the GI50 (LOX IMVI) was > 100 µM (inactive) and the GI50 (M14) was 44.8 µM (inactive). For the same compound, the GI50 (MDA-MB-231) was 79.1 µM (inactive), the GI50 (MDA-MB-435) was 84.5 µM (inactive) and the GI50 (MDA-N) was > 100 µM (inactive). For the same compound, the GI50 (MOLT-4) was 31.4 µM (inactive), the GI50 (Malme-3M) was > 100 µM (inactive) and the GI50 (NCI-H226) was 53.3 µM (inactive). The GI50 (NCI-H23) was 77.1 µM (inactive), the GI50 (NCI-H522) was 50.7 µM (inactive) and the GI50 (NCI/ADR-RES) was 29.9 µM (inactive). The GI50 (OVCAR-3) was 57.3 µM (inactive), the GI50 (OVCAR-4) was 57.9 µM (inactive) and the GI50 (OVCAR-5) was > 100 µM (inactive). For the same compound, the GI50 (OVCAR-8) was 36.5 µM (inactive), the GI50 (PC-3) was 40.7 µM (inactive) and the GI50 (RPMI-8226) was 22.1 µM (inactive). The GI50 (RXF 393) was 62.8 µM (inactive), the GI50 (SF-268) was 41 µM (inactive) and the GI50 (SF-295) was 79.8 µM (inactive). The GI50 (SK-MEL-28) was > 100 µM (inactive), the GI50 (SK-MEL-2) was > 100 µM (inactive) and the GI50 (SK-MEL-5) was 30.5 µM (inactive). For the same compound, the GI50 (SK-OV-3) was > 100 µM (inactive), the GI50 (SN12C) was > 100 µM (inactive) and the GI50 (SNB-19) was > 100 µM (inactive). For the same compound, the GI50 (SNB-75) was 62.2 µM (inactive), the GI50 (SR) was 12.9 µM (inactive) and the GI50 (SW-620) was 75.2 µM (inactive). The GI50 (T47D) was 64.3 µM (inactive), the GI50 (TK-10) was 59.7 µM (inactive) and the GI50 (U-251) was 30.8 µM (inactive). The GI50 (UACC-257) was > 100 µM (inactive), the GI50 (UACC-62) was 43.5 µM (inactive) and the GI50 (UO-31) was 23.7 µM (inactive).
For CNC(Cc1ccccc1)c1cccc(OC)c1O (stereo not drawn), the GI50 (786-0) was > 100 µM (inactive), the GI50 (A498) was > 100 µM (inactive) and the GI50 (A549) was > 100 µM (inactive). For the same compound, the GI50 (ACHN) was > 100 µM (inactive), the GI50 (BT-549) was > 100 µM (inactive) and the GI50 (CAKI-1) was > 100 µM (inactive). For the same compound, the GI50 (DU-145) was > 100 µM (inactive), the GI50 (EKVX) was 92.9 µM (inactive) and the GI50 (HCT-116) was > 100 µM (inactive). For the same compound, the GI50 (HCT-15) was greater than 100 µM, the GI50 (HOP-62) was > 100 µM (inactive) and the GI50 (HOP-92) was > 100 µM (inactive). For the same compound, the GI50 (HT-29) was 91.6 µM (inactive), the GI50 (Hs-578T) was > 100 µM (inactive) and the GI50 (IGROV-1) was > 100 µM (inactive). For the same compound, the GI50 (K562) was 98.2 µM (inactive), the GI50 (KM12) was > 100 µM (inactive) and the GI50 (LOX IMVI) was > 100 µM (inactive). The GI50 (M14) was > 100 µM (inactive), the GI50 (MDA-MB-231) was > 100 µM (inactive) and the GI50 (MDA-MB-435) was > 100 µM (inactive). The GI50 (MDA-N) was 99.3 µM (inactive), the GI50 (MOLT-4) was > 100 µM (inactive) and the GI50 (Malme-3M) was > 100 µM (inactive). For the same compound, the GI50 (NCI-H226) was > 100 µM (inactive), the GI50 (NCI-H23) was > 100 µM (inactive) and the GI50 (NCI-H460) was > 100 µM (inactive). For the same compound, the GI50 (NCI-H522) was > 100 µM (inactive), the GI50 (NCI/ADR-RES) was > 100 µM (inactive) and the GI50 (OVCAR-3) was 60.5 µM (inactive). For the same compound, the GI50 (OVCAR-4) was > 100 µM (inactive), the GI50 (OVCAR-5) was > 100 µM (inactive) and the GI50 (OVCAR-8) was > 100 µM (inactive). For the same compound, the GI50 (PC-3) was 60.7 µM (inactive), the GI50 (RXF 393) was > 100 µM (inactive) and the GI50 (SF-268) was > 100 µM (inactive). For the same compound, the GI50 (SF-295) was > 100 µM (inactive), the GI50 (SK-MEL-28) was > 100 µM (inactive) and the GI50 (SK-MEL-2) was > 100 µM (inactive). The GI50 (SK-MEL-5) was > 100 µM (inactive), the GI50 (SN12C) was > 100 µM (inactive) and the GI50 (SNB-19) was > 100 µM (inactive). For the same compound, the GI50 (SR) was > 100 µM (inactive), the GI50 (SW-620) was > 100 µM (inactive) and the GI50 (T47D) was 5 µM (inactive). The GI50 (TK-10) was > 100 µM (inactive), the GI50 (U-251) was > 100 µM (inactive) and the GI50 (UACC-257) was 18.6 µM (inactive). For the same compound, the GI50 (UACC-62) was > 100 µM (inactive) and the GI50 (UO-31) was > 100 µM (inactive).
O=C1c2c(O)cc(O)cc2OC(c2ccc(O)cc2O)C1O (stereo not drawn) was tested, and the GI50 (A549) was > 100 µM (inactive), the GI50 (BT-549) was > 100 µM (inactive) and the GI50 (CAKI-1) was > 100 µM (inactive). The GI50 (DU-145) was > 100 µM (inactive), the GI50 (EKVX) was > 100 µM (inactive) and the GI50 (Hs-578T) was > 100 µM (inactive). For the same compound, the GI50 (KM12) was > 100 µM (inactive), the GI50 (M14) was > 100 µM (inactive) and the GI50 (MCF7) was > 100 µM (inactive). The GI50 (MDA-MB-231) was > 100 µM (inactive), the GI50 (MDA-MB-435) was > 100 µM (inactive) and the GI50 (MDA-N) was > 100 µM (inactive). The GI50 (NCI-H23) was > 100 µM (inactive), the GI50 (NCI-H460) was > 100 µM (inactive) and the GI50 (PC-3) was > 100 µM (inactive). The GI50 (RXF 393) was > 100 µM (inactive), the GI50 (SF-295) was > 100 µM (inactive) and the GI50 (T47D) was > 100 µM (inactive). The GI50 (TK-10) was > 100 µM (inactive).
